Test [1] has as its system Campylobacter jejuni type strain DSMZ 4688. As to the kind of experiment: Effect of externally added DNase on DNA in heat-treated cells, 5'-nuclease PCR. It counts as cell-based. As to conditions: for reduction of the signal compared to control without DNase: 10 U DNase. The method, then: The effect on the DNA stability at room temperature after heat-treatment of the cultures, and after addition of DNase was investigated. 1.7±0.8×10^7 cells (with DNase) and 5.0±0.6×10^7 cells (without DNase) of C. jejuni type strain were used in these experiments. […] One set of tubes were then incubated further at room temperature, and samples for PCR analysis removed at intervals of 5, 15, and 30 min, 1 h, 6 and 24 hrs, and 5 days. 10 U RQl DNase (Promega, Madison, Wis., USA) and 1× DNase buffer were added to another set of tubes before the incubation at room temperature. Aliquots were analyzed after 5, 15 and 30 min, and after 1 hr, 6 and 24 hours. For the PCR analysis, DNA was purified from 10 μl aliquots from the respective time-points, and the subsequent 5′-nuclease PCR assay performed as described below.
Dynabeads® DNA Direct I (Dynal AS, Oslo, Norway), 200 μl, were then added to the suspension of bacteria, and the bacteria-bead suspension was incubated at 65° C. for 20 minutes, followed by incubation at room temperature for another 2 minutes. DNA bound to magnetic beads was then drawn to the wall of the microcentrifuge tube by a magnet (MPC®-E, Dynal AS, Oslo, Norway) for 2 minutes. The supernatant containing salts, detergent and cell debris was carefully removed without disrupting the Dynabeads/DNA complex. The beads were washed twice with a washing buffer (buffer 2 from the kit). Finally, the DNA was removed from the beads by resuspending in 40 μl 10 mM Tris HCl, pH 8.0 (buffer 3 from the kit), and incubation at 65° C. for 5 minutes. The beads, now released from the DNA, were collected with the magnet, and the DNA-containing supernatant was transferred to a fresh tube and used directly in the PCR.
(§1) Amplification reactions (50 μl) contained a DNA sample (1 μl), 1× TaqMan™ Buffer A, 5 mM MgCl2, 200 μM dATP, dCTP, dGTP, and 400 μM dUTF, 0.02 μM. C. Jejuni specific probe, 0.3 μM C. jejuni specific primers—see Table 1 below (each), 1 U AmpErase™ Uracil N-glycosylase (UNG), and 2.5 U AmpliTaq Gold™ DNA polymerase.
(§2) Before amplification, the PCR mixture was heated to 50° C. in 5 min to let the UNG destroy possibly contaminating PCR products, and 95° C. for 10 min to denature the template DNA. Amplification, profile: 40 cycles of 95° C. for 20 seconds and 60° C. for one minute. Reactions were performed in the ABI Prism® 7700 Sequence Detection System (PE Biosystems, Foster City, Calif., USA). Reaction conditions were programmed and data were analyzed on a power Macintosh 4400/20 (Apple Computer, Santa Clara, Calif., USA) linked directly to the ABE prism® 7700 Sequence Detection system using the SDS 1.6.3 application software (PE Biosystems, Foster City, Calif., USA) as described by the manufacturer.
The amplification was plotted as ΔRn, which was the normalized reporter signal (reporter signal minus background), against number of cycles. […] This gave threshold cycles (CT), which is defined as the PCR cycle where an increase in fluorescence first occurred, for each amplification plot. […] The CT-values were plotted against log input DNA/cells and gave standard curves for quantification of unknown samples and possibilities to estimate the amplification efficiency in the reaction (Heid, C. A., J. Stevens, K. J. Livak and P. M. Williams, 1996, Real time quantitative PCR, Genome Research 6: 986-994; PE Biosystems, 1997, User bulletin 2; ABI PRISM 7700 Sequence Detection System). […]

Test [2] relates to purified DNA from C. jejuni. The test is described as follows: DNase treatment of purified DNA, 5'-nuclease PCR. Format: biochemical. The settings on record: after 30 minutes of DNase treatment. As for the experimental part:
as §1, §2
The amplification was plotted as ΔRn, which was the normalized reporter signal (reporter signal minus background), against number of cycles. […] This gave threshold cycles (CT), which is defined as the PCR cycle where an increase in fluorescence first occurred, for each amplification plot. […]

The test system of another test is 16S rDNA gene (pure DNA). The test is described as follows: PCR inhibitory effect of photoactivated and unactivated EMA on pure DNA (16S rDNA PCR, agarose gel). Format: biochemical. The method, then:
The PCR inhibitory effects of both photoactivated, and unactivated EMA were investigated for pure DNA. PCR amplifications were carried out on dilution series of 1000, 100 and 10 μg/ml EMA. The 16S rDNA gene was amplified through the application of the forward primer 5′[…]3′ and the reverse primer 5′[…]3′. These primer sites are universally conserved for eubacterial 16S rDNA.
The PCR amplifications were done using the GeneAmp 9700 PCR amplification system (PE biosystems, Norwalk, Conn., USA). The 50 μl PCR reactions contained 10 pmol of each primer, 200 μM dNTP, 10 mM Tris-HCl (pH 8.8), 1.5 mM MgCl2, 50 mM KCl, 0.1% Triton® x-100, 1 U DynaZyme™ Thermostable DNA Polymerase (Finnzymes OY, Espoo, Finland) and 2 ng template. The cycling parameters were: 94° C. for 30 s, 55° C. for 30 s and 72° C. for 1 minute.
The cycling step was repeated 25 times. The samples were heated to 94° C. for 5 minutes prior to the amplification, and an extension step at 72° C. for 7 minutes was included after completion of the amplification reactions.
For each dilution series PCR was employed both on samples where EMA had been covalently photoactivated to DNA through illumination with a Luxor 18W type FL-185 lamp (Luxor ASA, Oslo, Norway) at 5 cm for 15 minutes, and on samples where EMA had been added to the DNA in the dark. […] For 100 and 10 μg/ml, the photoactivated EMA inhibited PCR, while PCR for the unactivated EMA was not inhibited (FIG. 1). 10 μg/ml amplification products were separated on a 1% agarose gel for 45 minutes at 100 volts. The conclusion from these experiments is that EMA covalently bound to DNA is sufficient to inhibit PCR amplification, and that EMA by itself is only inhibitory to PCR at high concentrations.

Another test concerns E. coil 0157 strain 765. As to the kind of experiment: Viable/dead study with EMA, TaqMan PCR. Format: cell-based, E. coli. As to conditions: for PCR cycle difference: 100 ng/μl EMA for 5 min. As for the experimental part:
(§3) Amplification reactions (50 μl) contained a DNA sample (1-5 μl), 1× TaqMan™ Buffer A, […], 200 μM dATP, dCTP, dGTP, and 400 μM dUTP, 0.1 μM E. coli specific probe, 0.3 μM E. coli specific primers (each), and 2.5 U AmpliTaq GoldT™ DNA polymerase. PCR samples and controls were prepared in triplicates. Reaction tubes were MicroAmp® Optical tubes and tube caps were MicroAmp® Optical caps. All consumables were supplied by PE Biosystems, Foster City, Calif., USA. Before amplification, the PCR mixture was heated to 95° C. for 10 mins to denature the template DNA. Amplification profile: 40 cycles of 95° C. for 20 seconds and 60° C. for one minute. Reactions were performed in the ABI prism® 7700 Sequence Detection System (PE Biosysrems, Foster City, Calif., USA).
(§4) The amplification was plotted as ΔRn, which was the normalized reporter signal (reporter signal minus background), against number of cycles. One then chose a threshold signal, which intersected the amplification curves in the linear region of the semi-log plot. This gave threshold cycles (CT), which is detined as the PCR cycle where an increase in fluorescence first occurred, for each amplification plot. Different amplification could then be compared by their respective threshold cycles.
(§5) The light activation was done on ice with a OSRAM SLG1000 lamp (OSRAM, Norway) with a 650 W halogen light bulb at a distance of 10 cm.
The strain was killed with 70% isopropyl ethanol for. 30 min. 10 ng/μl and 100 ng/μl EMA were added both to the viable control, and to the killed bacteria. The bacteria were exposed to EMA for 30, 1 min, 5 min, 10 min and 15 min. Exposure to 100 ng/μl for 5 min give the best discrimination with approximately 1 cycle difference for the viable bacteria, and 10 cycles (½^10) for the killed bacteria. […] For treated, i.e. dead bacteria, CT was at 20 PCR cycles for bacteria not exposed to EMA but at 30 for bacteria exposed to EMA.

The subject of the next test is E. coli. As to the kind of experiment: EMA as living/dead stain: PCR signal from living and killed E. coli. It counts as cell-based. The settings on record: for difference in PCR signal intensities between the treated sample and the control: light 10 minutes. As for the experimental part: Panel B: The signal intensities were determined as pixel values in an 8 bit grayscale by using the program Gel-Pro ANALYZER software (Medica Cybernetics, Silver Spring. Md.). The relative signal intensities for the EMA treated samples are given as a percentage of the untreated samples.
E. coli was killed by ethanol, heat, and formaldehyde to test the effect of EMA as a living/dead stain. In these experiments aliquots of approximately 10^8 cells of E. coli were pelleted in a microcentrifuge at 8000 rpm for 5 minutes, the supernant removed, and the cells resuspended in 50 μl of the respective liquids; water 96% ethanol, and 2% formaldehyde. The ethanol and formaldehyde treated samples were incubated at room temperature, while the water samples were incubated both at room temperature and at 95° C. All samples were incubated at the respective temperatures for 5 minutes.
The bacteria were subsequently pelleted by centrifugation, the supernatant removed, and the cells resuspended in 50 μl water. […]
All the samples were exposed to light for 10 minutes. Subsequently, the samples were resuspended in 500 μl […] (GTC) and 1% sarkosyl containing 1U Dynabeads DNA DIRECT beads (Dynal AS, Oslo, Norway). Incubation was continued at room temperature for an additional 5 minutes. 1 ml 96% ethanol was added, and after 5 minutes the samples were washed twice with 1 ml 70% ethanol. The bead and DNA complex was then resuspended in 50 μl water, and finally heated to 65° C. for 10 minutes to remove residual ethanol. 2% of the purified DNA was used in each amplification reaction as described above.

Another test has as its system DNA. The test is described as follows: Time to light inactivation of EMA, real time quantitative PCR. Format: biochemical. The settings on record: EMA exposed to light for 30 s or more prior to binding to DNA; 2, 20, 100 ng/μl. The method, then:
as §3, §4
The light activation was done on ice with a OSRAM SLG1000 lamp (OSRAM, Norway) with a 650 W halogen light bulb at a distance of 10 cm. […]

The subject of another test is purified DNA. The test is described as follows: Time series for covalent binding of EMA to DNA, real time quantitative PCR. Format: biochemical. As for the experimental part: as §3, §4, §5
EMA in concentrations 2 ng/μl, 20 ng/μl and 100 ng/μl were added to purified DNA, and exposed to light for 5 s, 15 s, 45 s, 1 min and 3 min. The amount of DNA that could serve as a template was then tested by real time quantitative PCR.

The text below walks through data of patent publication US7262009B2, “Method of cell detection” (Matforsk; Norwegian Food Research Institute, priority 2000, dated 2007).

On to DNase, for which the “reduction of the signal compared to control without DNase” value in test [1] (cells heated at 72° C. for 5 min), in test [1] (cells heated at 100° C. for 5 min) and in test [1] (cells heated at 121° C. for 15 min) was 1 log throughout. Further, the “difference between the DNase treated samples and the control” value in test [1] (cells incubated at 20° C.) and in test [1] (cells incubated at 55° C.) was “little difference” in each case. Moreover, in test [2], the “input material (DNA) left” value is given as “about 0.01%”.

For the compound `CC[n+]1c(-c2ccccc2)c2cc(N=[N+]=[N-])ccc2c2ccc(N)cc21.[Br-]` [EMA, ethidium bromide monoazide], the PCR inhibition entry in the test with 16S rDNA gene (pure DNA) (non activated EMA (added in the dark), 1000 μg/ml) is listed as “inhibited the PCR reaction”; with 16S rDNA gene (pure DNA) (photoactivated EMA, 10 μg/ml) it was “inhibited PCR”; in the test with 16S rDNA gene (pure DNA) (photoactivated EMA, 100 μg/ml) it was “inhibited PCR”; in the test on 16S rDNA gene (pure DNA) (photoactivated EMA, 1000 μg/ml), “inhibited the PCR reaction”; in the test on 16S rDNA gene (pure DNA) (unactivated EMA, 10 μg/ml), “not inhibited”; in the test on 16S rDNA gene (pure DNA) (unactivated EMA, 100 μg/ml) it was “not inhibited”. Also, the PCR inhibition with E. coli (ethanol killed bacteria (double-stranded DNA)) and in the test on E. coli (heat killed bacteria (single-stranded DNA)) was 100% each time. For the same compound, the PCR cycle difference in the test with E. coil 0157 strain 765 (killed bacteria (70% isopropyl ethanol 30 min)) is on record as roughly 10 cycles; in the test with E. coil 0157 strain 765 (viable bacteria) it was “approximately 1 cycle”. The CT in the test with E. coil 0157 strain 765 (treated, i.e. dead bacteria exposed to EMA) stood at 30 PCR cycles; in the test on E. coil 0157 strain 765 (untreated, i.e. viable bacteria exposed to EMA), 21 cycles. Moreover, the “amplification efficiency for the living bacteria” value in the test with E. coli (EMA 100 μg/ml) is recorded as “reduced the amplification efficiency”. The “discrimination between the viable and dead bacteria” value in the test with E. coli (EMA increased to 100 μg/ml) is recorded as “did not result in a better discrimination”. Also, the “difference in PCR signal intensities between the treated sample and the control” value is recorded as “about 100%” with E. coli (bacteria killed by heat (95° C.), EMA 10 μg/ml); “about 100%” in the test with E. coli (bacteria killed with ethanol, EMA 10 μg/ml); 85% in the test with E. coli (formaldehyde treated sample, EMA 10 μg/ml). For the same compound, in the test with E. coli (living bacteria, EMA 10 μg/ml), the “difference in PCR signal intensities between the controls and the EMA sample” value is given as “no differences”. In addition, the “difference between the control and the test sample” value with DNA is on record as “no significant difference”. The “difference in the PCR cycles (ΔCT) until a detectable signal” value with purified DNA (EMA 2, 20 and 100 ng/μl (all concentrations tested), after light exposure) is reported as “approximately 12”. The “time at which the binding reaction was complete” value in the test on purified DNA (light exposure, EMA 2-100 ng/μl) is “about 30 s”. Moreover, in the test with purified DNA (½^12, from ΔCT), the “fraction of DNA that could serve as a PCR template after covalent binding of EMA” value was 0,000244.
